The text below walks through data of patent US20140163218A1, “NOVEL PHTHALOCYANINE DERIVATIVES FOR THERAPEUTIC USE” (MOLTENI THERAPEUTICS S.R.L., priority 2011, published 2014).

Marks after values point to notes of the source that are not given here.

The subject of series [1] is Pseudomonas aeruginosa. The note with it: 99.9% reduction; 5 min incubation; red light 600-700 nm, 50 mW/cm^2 for 10 min, 30 J/cm^2. As for the experimental part: (§1) The bacterial and fungal cells (ATCC of Staphylococcus aureus, Escherichia coli and Pseudomonas aeruginosa strains for the bacteria, Candida albicans for the yeasts) are grown in a Tryptic Soy Broth (TSB) liquid medium at 37° C. for 16-20 hr (bacteria) and in Sabouraud Dextrose Broth (SDB) at 37° C. for 24 hr (yeasts) in an aerobic atmosphere.
(§2) The cells are collected for centrifugation (2000 g, 15 min.) and re-suspended in sterile PBS (pH=7.3±0.1).
(§3) Exposure of the microorganisms to the photosensitiser and to the light source is carried out in wells of sterile, polystyrene, Microtiter plates, in PBS containing the desired concentration of photosensitiser. The plate is left to incubate at room temperature, for 5 min for the bacteria and for 1 hr at 37° C. for the yeasts. For lighting with red visible light a halogen lamp is used, model PDT 1200 Waldmann (A=600-700 nm) at 50 mW/cm^2 for 10 min and the total dose of light consequently used in the assay is of 30 J/cm^2.
(§4) After illuminating the bacterial or fungal suspension, and suitable dilutions thereof in sterile PBS, they are inoculated on agar plates to determine the number of residual UFCs. The plates are incubated at 37° C. for 24 hours and the results are recorded at the end of this period.

Series [2] deals with Candida albicans. The note with it: 99.9% reduction; 1 hr incubation at 37° C.; red light 600-700 nm, 50 mW/cm^2 for 10 min, 30 J/cm^2. How it is done:
as §1, §2, §3, §4

Series [3] has as its system Escherichia coli. Particulars: 99.9% reduction; 5 min incubation; red light 600-700 nm, 50 mW/cm^2 for 10 min, 30 J/cm^2. As for the experimental part:
as §1, §2, §3, §4

Series [4] has as its system Staphylococcus aureus. The note with it: 99.9% reduction; 5 min incubation; red light 600-700 nm, 50 mW/cm^2 for 10 min, 30 J/cm^2. As for the experimental part: as §1, §2, §3, §4
Series [5] in a line: Stability in water by HPLC (loss of titre and purity after 8 hours). Type of series: physicochemical. The note with it: 1 mg/mL in DMSO diluted 1:10 with deionised water, HPLC at time 0 and after 8 hours; result in words. How it is done:
Protocol: each sample is dissolved in DMSO at the concentration of 1 mg/mL and then diluted 1:10 with deionised water. The solution is analysed in HPLC at time 0 and after 8 hours and any loss of titre and/or of purity is recorded by the following method: Column: Luna C18 (2) 150*4.6 mm (5 μm);
elution in gradient of AcOH 0.1% in water (Eluent A) and methanol (Eluent B) with % B 10-100 in 20 min or 40-100 depending on the polarity of the injected compound; flow 1 mL/min; temperature: 25° C.; injection […]; detection at 686 nm, bw 20 nm.

Consider “{bis-[bis-(3-N,N,N-trimethylammoniumpropyl)]propylsilyloxy}silicon(IV) phthalocyanine tetrachloride [Compound 2]”, for which the “MBC, 3 log (μM) P. aeruginosa” value in series [1] is recorded as 6.25 μM. The “MFC, 3 log (μM) C. albicans” value in series [2] is recorded as above 50 μM. Also, in series [3], the “MBC, 3 log (μM) E. coli” value is on record as 6.25 μM. For the same substance, in series [4], the “MBC, 3 log (μM) S. aureus” value came out at 0.25 μM. In series [5], the “Loss of purity (% area)” value is “insignificant (of ≦ to 0.1% for the loss of purity)” and the “Loss of titre (%)” value is recorded as “insig- nificant”.

For “{bis-[3-(m-N,N,N-trimethylammoniumphenyloxy)propyl-dipropylsilyloxyl]}silicon(IV) phthalocyanine dichloride [Compound 5]”, in series [1], the “MBC, 3 log (μM) P. aeruginosa” value was determined as 25 μM. The “MFC, 3 log (μM) C. albicans” value in series [2] stood at 50 μM. Moreover, in series [3], the “MBC, 3 log (μM) E. coli” value was determined as 25 μM. The “MBC, 3 log (μM) S. aureus” value in series [4] turned out to be 0.1 μM. For the same substance, in series [5], the “Loss of purity (% area)” value is on record as “insignificant (of ≦ to 0.1% for the loss of purity)” and the “Loss of titre (%)” value was “insig- nificant”.

Take “{bis-[bis-(p-N,N,N-trimethylammoniumphenyl)]propylsilyloxy}silicon(IV) phthalocyanine tetrachloride [Compound 3]”: the “MBC, 3 log (μM) P. aeruginosa” value in series [1] is 1.56 μM. Moreover, the “MFC, 3 log (μM) C. albicans” value in series [2] is above 50 μM. The “MBC, 3 log (μM) E. coli” value in series [3] is on record as 3.13 μM. The “MBC, 3 log (μM) S. aureus” value in series [4] amounted to 0.05 μM. Moreover, in series [5], the “Loss of purity (% area)” value was “insignificant (of ≦ to 0.1% for the loss of purity)” and the “Loss of titre (%)” value is reported as “insig- nificant”.

Turning to “{bis-[bis-(p-N,N,N-trimethylammoniumphenyl)]-3-(N-methyl-piperidine-1-ium)propylsilyloxy}silicon(IV) phthalocyanine hexachloride [Compound 1]”, the “MBC, 3 log (μM) P. aeruginosa” value in series [1] is given as 6.25 μM. For the same substance, in series [2], the “MFC, 3 log (μM) C. albicans” value turned out to be 12.5 μM. In addition, in series [3], the “MBC, 3 log (μM) E. coli” value was found to be 6.25 μM. In addition, the “MBC, 3 log (μM) S. aureus” value in series [4] was determined as 0.78 μM. In addition, in series [5], the “Loss of purity (% area)” value is “insignificant (of ≦ to 0.1% for the loss of purity)” and the “Loss of titre (%)” value is recorded as “insig- nificant”.

“{bis-[3-(N-methyl-piperidin-1-ium)propyl-dipropvlsilyloxy]}silicon(IV) phthalocyanine dichloride [Compound 4]”: the “MBC, 3 log (μM) P. aeruginosa” value in series [1] stood at 50 μM. In addition, the “MFC, 3 log (μM) C. albicans” value in series [2] is recorded as 3.13* μM. Moreover, the “MBC, 3 log (μM) E. coli” value in series [3] was determined as 6.25 μM. Further, the “MBC, 3 log (μM) S. aureus” value in series [4] was determined as 0.03 μM. In series [5], the “Loss of purity (% area)” value is “insignificant (of ≦ to 0.1% for the loss of purity)” and the “Loss of titre (%)” value is given as “insig- nificant”.
